Assays:
Assay type in all cases: in vivo
[1] = test system: barnyardgrass (Echinochloa crus-galli); experiment: Test A postemergence; conditions: Echinochloa crus-galli, post-emergence, 240 h, Postemergence; for pest or weed control at 125 g/ha: 125 g ai/ha, visual rating about 10 d after treatment, read-out: Barnyardgrass plant response rating (0 to 100 scale, 0 no effect, 100 complete control); for pest or weed control at 31 g/ha: 31 g ai/ha, 0 is no effect, 100 is complete control, read-out: Barnyardgrass plant response rating (0 to 100 scale)
Outline: (§1)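 Compounds were formulated in a non-phytotoxic solvent mixture with surfactant and applied as a preemergence directed soil spray after seeding, or sprayed postemergence over plants 2 to 10 cm tall at the one- to two-leaf stage. Evaluation after about 10 d compared treated with untreated controls, using a scale from 0 (no effect) to 100 (complete control).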

[2] = test system: ryegrass, Italian (Italian ryegrass, Lolium multiflorum); experiment: Test A postemergence; conditions: Lolium multiflorum, post-emergence, 240 h, Postemergence, read-out: Ryegrass, Italian plant response rating (0 to 100 scale); for pest or weed control at 125 g/ha: 125 g ai/ha, visual rating about 10 d after treatment; for pest or weed control at 31 g/ha: 31 g ai/ha, 0 is no effect, 100 is complete control
Outline: as §1

[3] = test system: wheat (Triticum aestivum); experiment: Test A postemergence; conditions: Triticum aestivum, post-emergence, 240 h, Postemergence, read-out: Wheat plant response rating (0 to 100 scale); for plant injury at 125 g/ha: 125 g ai/ha, visual rating about 10 d after treatment; for plant injury at 31 g/ha: 31 g ai/ha, 0 is no effect, 100 is complete control
Outline: as §1

[4] = test system: giant foxtail (Setaria faberii); experiment: Test A postemergence; conditions: Setaria faberi, post-emergence, 240 h, Postemergence, read-out: Foxtail, Giant plant response rating (0 to 100 scale); for pest or weed control at 125 g/ha: 125 g ai/ha, visual rating about 10 d after treatment; for pest or weed control at 31 g/ha: 31 g ai/ha, 0 is no effect, 100 is complete control
Outline: as §1

corn (Zea mays) = experiment: Test A postemergence; conditions: Zea mays, post-emergence, 240 h, Postemergence, read-out: Corn plant response rating (0 to 100 scale); for plant injury at 125 g/ha: 125 g ai/ha, visual rating about 10 d after treatment; for plant injury at 31 g/ha: 31 g ai/ha, 0 is no effect, 100 is complete control
Outline: as §1

[5] = test system: ragweed (common ragweed, Ambrosia elatior); experiment: Test A postemergence; conditions: Ambrosia artemisiifolia, post-emergence, 240 h, Postemergence, read-out: Ragweed plant response rating (0 to 100 scale); for pest or weed control at 125 g/ha: 125 g ai/ha, visual rating about 10 d after treatment; for pest or weed control at 31 g/ha: 31 g ai/ha, 0 is no effect, 100 is complete control
Outline: as §1

Kochia (Kochia scoparia) [6] = experiment: Test A postemergence; conditions: Bassia scoparia, post-emergence, 240 h, Postemergence, read-out: Kochia plant response rating (0 to 100 scale); for pest or weed control at 125 g/ha: 125 g ai/ha, visual rating about 10 d after treatment; for pest or weed control at 31 g/ha: 31 g ai/ha, 0 is no effect, 100 is complete control
Outline: as §1

[7] = test system: pigweed (Amaranthus retroflexus); experiment: Test A postemergence; conditions: Amaranthus retroflexus, post-emergence, 240 h, Postemergence, read-out: Pigweed plant response rating (0 to 100 scale); for pest or weed control at 125 g/ha: 125 g ai/ha, visual rating about 10 d after treatment; for pest or weed control at 31 g/ha: 31 g ai/ha, 0 is no effect, 100 is complete control
Outline: as §1

[8] = test system: blackgrass (Alopecurus myosuroides); experiment: Test A postemergence; conditions: Alopecurus myosuroides, post-emergence, 240 h, Postemergence, read-out: Blackgrass plant response rating (0 to 100 scale); for pest or weed control at 125 g/ha: 125 g ai/ha, visual rating about 10 d after treatment; for pest or weed control at 31 g/ha: 31 g ai/ha, 0 is no effect, 100 is complete control
Outline: as §1

[9] = test system: Galium (catchweed bedstraw, Galium aparine); experiment: Test A postemergence; conditions: Galium, post-emergence, 240 h, Postemergence, read-out: Galium plant response rating (0 to 100 scale); for pest or weed control at 125 g/ha: 125 g ai/ha, visual rating about 10 d after treatment; for pest or weed control at 31 g/ha: 31 g ai/ha, 0 is no effect, 100 is complete control
Outline: as §1

[10] = test system: barnyardgrass (Echinochloa crus-galli); experiment: Test A preemergence; conditions: Echinochloa crus-galli, pre-emergence, 240 h, Preemergence; for pest or weed control at 31 g/ha: 31 g ai/ha, 0 to 100 scale where 0 is no effect and 100 is complete control, read-out: Barnyardgrass plant response rating; for pest or weed control at 125 g/ha: 125 g ai/ha, 0 to 100 scale (0 no effect, 100 complete control), read-out: Plant response rating, Barnyardgrass
Outline: as §1

[11] = test system: ryegrass, Italian (Italian ryegrass, Lolium multiflorum); experiment: Test A preemergence; conditions: Lolium multiflorum, pre-emergence, 240 h, Preemergence; for pest or weed control at 31 g/ha: 31 g ai/ha, 0 to 100 scale where 0 is no effect and 100 is complete control, read-out: Ryegrass, Italian plant response rating; for pest or weed control at 125 g/ha: 125 g ai/ha, 0 to 100 scale (0 no effect, 100 complete control), read-out: Plant response rating, Ryegrass, Italian
Outline: as §1

[12] = test system: ragweed (common ragweed, Ambrosia elatior); experiment: Test A preemergence; conditions: Ambrosia artemisiifolia, pre-emergence, 240 h, Preemergence; for pest or weed control at 31 g/ha: 31 g ai/ha, 0 to 100 scale where 0 is no effect and 100 is complete control, read-out: Ragweed plant response rating; for pest or weed control at 125 g/ha: 125 g ai/ha, 0 to 100 scale (0 no effect, 100 complete control), read-out: Plant response rating, Ragweed
Outline: as §1

Kochia (Kochia scoparia) [13] = experiment: Test A preemergence; conditions: Bassia scoparia, pre-emergence, 240 h, Preemergence; for pest or weed control at 31 g/ha: 31 g ai/ha, 0 to 100 scale where 0 is no effect and 100 is complete control, read-out: Kochia plant response rating; for pest or weed control at 125 g/ha: 125 g ai/ha, 0 to 100 scale (0 no effect, 100 complete control), read-out: Plant response rating, Kochia
Outline: as §1

[14] = test system: pigweed (Amaranthus retroflexus); experiment: Test A preemergence; conditions: Amaranthus retroflexus, pre-emergence, 240 h, Preemergence; for pest or weed control at 31 g/ha: 31 g ai/ha, 0 to 100 scale where 0 is no effect and 100 is complete control, read-out: Pigweed plant response rating; for pest or weed control at 125 g/ha: 125 g ai/ha, 0 to 100 scale (0 no effect, 100 complete control), read-out: Plant response rating, Pigweed

Row | Structure (SMILES) | pest or weed control at 125 g/ha [1] | pest or weed control at 31 g/ha [1] | pest or weed control at 125 g/ha [2] | pest or weed control at 31 g/ha [2] | plant injury at 125 g/ha [3] | plant injury at 31 g/ha [3] | pest or weed control at 125 g/ha [4] | pest or weed control at 31 g/ha [4] | plant injury at 125 g/ha (corn (Zea mays)) | plant injury at 31 g/ha (corn (Zea mays)) | pest or weed control at 125 g/ha [5] | pest or weed control at 31 g/ha [5] | pest or weed control at 125 g/ha (Kochia (Kochia scoparia) [6]) | pest or weed control at 31 g/ha (Kochia (Kochia scoparia) [6]) | pest or weed control at 125 g/ha [7] | pest or weed control at 31 g/ha [7] | pest or weed control at 125 g/ha [8] | pest or weed control at 31 g/ha [8] | pest or weed control at 125 g/ha [9] | pest or weed control at 31 g/ha [9] | also measured
1 | CN1C[C@H](c2csc3c2CCC(F)(F)C3)[C@@H](C(=O)Nc2ccc(F)c(F)c2F)C1=O (racemic) [Compound 1368] | 50% | 20% | 40% | 20% | 0% | 0% | 40% | 0% | 0% | 0% | 0% | 0% | 20% | 0% | 0% | 0% | 30% | 0% | 30% | 0% | pest or weed control at 31 g/ha [10]: 0%; pest or weed control at 125 g/ha [10]: 100%; pest or weed control at 31 g/ha [11]: 0%; pest or weed control at 125 g/ha [11]: 0%; pest or weed control at 31 g/ha [12]: 0%; pest or weed control at 125 g/ha [12]: 0%; pest or weed control at 31 g/ha (Kochia (Kochia scoparia) [13]): 0%; pest or weed control at 125 g/ha (Kochia (Kochia scoparia) [13]): 0%; pest or weed control at 31 g/ha [14]: 0%; pest or weed control at 125 g/ha [14]: 0%
2 | CN1C[C@H](c2csc3c2CCC(F)(F)C3)[C@@H](C(=O)Nc2cccc(F)c2F)C1=O (racemic) [Compound 1369] | 60% | 20% | 30% | 0% | 0% | 0% | 50% | 20% | 0% | 0% | 20% | 0% | 20% | 0% | 20% | 20% | 20% | 0% | 30% | 0% | pest or weed control at 31 g/ha [10]: 0%; pest or weed control at 125 g/ha [10]: 100%; pest or weed control at 31 g/ha [11]: 0%; pest or weed control at 125 g/ha [11]: 0%; pest or weed control at 31 g/ha [12]: 50%; pest or weed control at 125 g/ha [12]: 70%; pest or weed control at 31 g/ha (Kochia (Kochia scoparia) [13]): 0%; pest or weed control at 125 g/ha (Kochia (Kochia scoparia) [13]): 0%; pest or weed control at 31 g/ha [14]: 0%; pest or weed control at 125 g/ha [14]: 0%
